# Patent publication US20240131356A1, “COMBINATION OF INTRACELLULAR AND EXTRACELLULAR PHOTOSENSITIZERS FOR TREATMENT OF BACTERIAL INFECTION” (priority 2021, published 2024)
# Read-outs that look alike come from different tables or passages of the source.
# Test system: hrtAB promoter (HssRS activation; CgoX activation)
# Test: XylE colorimetric reporter assay (phrt.xylE), activation of HssRS / hrtAB expression
# Type: cell-based, Staphylococcus aureus strain Newman
# Settings: for Specifc Activity @ 30 μM: 30 μM compound, XylE activity normalized to protein; for Specifc Activity @ 30 μM / Specifc Activity (nMol/min*mg), data collected at 10 uM: 6 h subculture; for EC50: Staphylococcus aureus, NEWMAN; for XylE activity (ability to activate HssRS) in comparison to '8882: dose not stated; for XylE activity in comparison to '8882 at 10 μM: six-hour exposure (FIG. 2A); for XylE activity in comparison to '8882 at 30 μM: six-hour exposure (FIG. 2B); for Specifc Activity (nMol/min*mg), data collected at 10 uM: footnote a: data collected at 10 uM
# Experimental: To maximize the production of coproporphyrin III and thereby increase blue-light mediated killing of S. aureus, synthesized analogs of VU0038882 were tested. To determine the relative efficacy of each analog, a Newman strain of S. aureus, transformed with the phrt.xylE (11) reporter vector was used. This reporter allows for colorimetric assessment of intracellular heme production. To perform the assay, each individual analog was added to 3 mL of TSB+10 μg/mL chloramphenicol to reach a concentration of 30 μM, and then 700 μL of this newly made 30 μM solution was added to 1.3 mL of remaining TSB+10 μg/mL chloramphenicol media to create the 10 μM concentration. Either 10 μM or 30 μM concentrations of compounds in medium were then aliquoted into three 0.5 mL replicate tubes. Three separate 16- to 18-hour overnight subcultures from isolated colonies were back-diluted 1:100 into the tubes creating three biological replicates and were subcultured for 6 hours at 37° C. and 180 rpm. After incubation, the cells were pelleted at 16,400 g for 5 minutes and the supernatant aspirated before washing with 0.5 mL of 20 mM potassium phosphate wash buffer. After pelleting the cells again at 16,400 g for 5 minutes the wash buffer was aspirated, and the pellets were stored at −80° C. until further use.
# When the cells were ready to be lysed and data collected, samples were removed from the −80° C. freezer, allowed to thaw, and resuspended in 150 μL of lysis buffer (100 mM potassium phosphate pH=8.0, 10% v/v acetone, 20 μg/mL lysostaphin) before incubation in a 37° C. bead bath for 20 minutes and then cooled for 5 minutes on ice. The samples were then centrifuged at 16,400 g and 4° C. for 30 minutes to separate the pellet from the lysate, which was then placed into a 96-well microtiter plate and kept on ice. The lysate from each sample was pipetted into 20 μL aliquots on a round-bottom or flat-bottom 96-well plate on ice. The round bottom plate was labeled for bicinchoninic acid assay (BCA) protein content analysis, and 10 μL of BCA standards was added to extra wells on the plate. Protein quantification was performed using a Pierce BCA Protein Assay Kit as per the manufacturer's instructions. While the BCA plate was in the incubator, the flat-bottom plate was prepared by thawing 1 M catechol on ice and making 100 mM potassium phosphate (pH=8.0) assay buffer. After preparing a kinetic read at 375 nm for 10 minutes with a minimal interval between reads, the catechol was diluted 1:1,000 into the assay buffer and quickly dispensed into a sterile basin, then 200 μL of the solution was pipetted into each well using a multichannel pipette. All data were exported into Excel software (Microsoft) and analyzed for specific activity of each compound and activity relative to VU0038882 controls.
# After 219 analogs had been screened, the compounds with the best percent VU0038882 activity were tested again following the same protocol, but with twelve replicates per concentration with data expressed as averages ±the standard deviation (SD). Additionally, the top-performing compounds were tested using the XylE protocol with a concentration gradient to determine their half maximal effective concentration (EC50) values.
# Photosensitizer-conjugated antibodies expose bacteria to reactive oxygen species (ROS) externally, but this treatment can be paired with small molecule treatment to generate ROS internally via heme biosynthesis pathway intermediates. To discover new compounds capable of activating CgoX and/or displaying less toxicity to eukaryotic cells, a medicinal chemistry campaign was initatied based on systematic alternation of the '8882 structure. Each new analog was tested for the ability to activate HssRS using the previously described XylE colorimetric assay that employs a reporter construct in which the hrtAB promoter is fused to a xylE reporter gene. […]
Compound,Specifc Activity @ 30 μM [nmol/min/mg],further results
"Oc1c(-c2cc(-c3ccsc3)[nH]n2)ccc2ccccc12 [′9132, 2-(5-(thiophen-3-yl)-1H-pyrazol-3-yl)naphthalen-1-ol]",12.82 ± 1.12,EC50: 26.2 µM; EC50 (read-out: logEC50 (converted)): 26.2 µM; XylE activity (ability to activate HssRS) in comparison to '8882: lost some activity compared with '8882
"Cc1ccc(-c2cc(-c3ccc4ccccc4c3O)n[nH]2)o1 ['9624, 2-(5-(5-Methylfuran-2-yl)-1H-pyrazol-3-yl)naphthalen-1-ol]",1.152 ± 0.382,
"Oc1c(-c2n[nH]c3c2CCc2ccoc2-3)ccc2ccccc12 [′1790, 2-(4,5-Dihydro-2H-furo[3,2-g]indazol-3-yl)naphthalen-1-ol]",4.146 ± 2.397,
"Cn1ccc(-c2cc(-c3ccc4ccccc4c3O)n[nH]2)n1 [′6699, 2-(1-Methyl-1H,2′H-[3,3′-bipyrazol]-5′-yl)naphthalen-1-ol]",5.138 ± 4.82,
"Oc1c(-c2cc(-c3cc4ccccc4o3)[nH]n2)ccc2ccccc12 [′9134, 2-(5-(Benzofuran-2-yl)-1H-pyrazol-3-yl)naphthalen-1-ol]",0.130 ± 0.142,
"Oc1c(-c2cc(-c3cccs3)[nH]n2)ccc2ccccc12 [′9626, 2-(5-(Thiophen-2-yl)-1H-pyrazol-3-yl)naphthalen-1-ol]",28.86 ± 2.66,XylE activity in comparison to '8882 at 10 μM: performed well; XylE activity in comparison to '8882 at 30 μM: comparable to '8882; EC50: 19.9 µM; EC50 (read-out: logEC50 (converted)): 19.9 µM
"Oc1c(-c2nnc(-c3ccco3)o2)ccc2ccccc12 [′0527, 2-(5-(furan-2-yl)-1,3,4-oxadiazol-2-yl)naphthalen-1-ol]",0.2270 ± 0.0147,
"Oc1c(-c2cc(-c3cnco3)[nH]n2)ccc2ccccc12 [′0071, 2-(5-(Oxazol-5-yl)-1H-pyrazol-3-yl)naphthalen-1-ol]",,"Specifc Activity (nMol/min*mg), data collected at 10 uM: 1.152 ± 0.263^a nMol/min*mg"
"Oc1c(-c2cc(C3CCCO3)[nH]n2)ccc2ccccc12 (stereo not shown) [′9437, 2-(5-(tetrahydrofuran-2-yl)-1H-pyrazol-3-yl)naphthalen-1-ol]",0.088 ± 0.041,
"Oc1c(-c2n[nH]c(-c3ccco3)n2)ccc2ccccc12 [′0485, 2-(5-(Furan-2-yl)-1H-1,2,4-triazol-3-yl)naphthalen-1-ol]",1.697 ± 0.335,
"Oc1cc2ccccc2cc1-c1cc(-c2ccco2)[nH]n1 [′3918, 3-(5-(Furan-2-yl)-1H-pyrazol-3-yl)naphthalen-2-ol]",0.2543 ± 0.127,
"CC(C)Nc1cc(-c2ccc3ccccc3c2O)n[nH]1 [′0457, 2-(5-(isopropylamino)-1H-pyrazol-3-yl)naphthalen-1-ol]",0.5082 ± 0.770,
"Cn1nccc1-c1cc(-c2ccc3ccccc3c2O)n[nH]1 [′8233, 2-(2′-Methyl-2H,2′H-[3,3′-bipyrazol]-5-yl)naphthalen-1-ol]",0.5053 ± 0.294,
"Cc1nn(C)c(C)c1-c1cc(-c2ccc3ccccc3c2O)n[nH]1 [′2069, 2-(1′,3′,5′-trimethyl-1′H,2H-[3,4′-bipyrazol]-5-yl)naphthalen-1-ol]",10.46 ± 1.54,XylE activity in comparison to '8882 at 10 μM: weaker activity compared to '8882; XylE activity in comparison to '8882 at 30 μM: equivalent; EC50: 28.5 µM; EC50 (read-out: logEC50 (converted)): 28.5 µM
"Cn1ncc2cc(-c3cc(-c4ccc5ccccc5c4O)n[nH]3)ccc21 [′6700, 2-(5-(1-methyl-1H-indazol-5-yl)-1H-pyrazol-3-yl)naphthalen-1-ol]",24.26 ± 3.69,EC50: 8.18 µM; EC50 (read-out: logEC50 (converted)): 8.18 µM; XylE activity (ability to activate HssRS) in comparison to '8882: roughly equivalent to '8882
"Cc1cnccc1-c1cc(-c2ccc3ccccc3c2O)n[nH]1 [′9767, 2-(5-(3-Methylpyridin-4-yl)-1H-pyrazol-3-yl)naphthalen-1-ol]",,"Specifc Activity (nMol/min*mg), data collected at 10 uM: 1.393 ± 0.392^a nMol/min*mg"
"c1ccc(-c2cc(-c3ccco3)[nH]n2)nc1 [′7092, 2-(5-(Furan-2-yl)-1H-pyrazol-3-yl)pyridine]",0.2374 ± 0.1354,
"Oc1ccc(F)cc1-c1cc(-c2ccco2)[nH]n1 [′4082, 4-Fluoro-2-(5-(furan-2-yl)-1H-pyrazol-3-yl)phenol]",5.884 ± 1.88,
"Cc1csc(-c2cc(-c3ccc4ccccc4c3O)n[nH]2)c1 [′9627, 2-(5-(4-Methylthiophen-2-yl)-1H-pyrazol-3-yl)naphthalen-1-ol]",10.15 ± 3.65,
"Nc1ncccc1-c1cc(-c2ccco2)[nH]n1 [′3989, 3-(5-(Furan-2-yl)-1H-pyrazol-3-yl)pyridin-2-amine]",0.2491 ± 0.2546,
"C/C=C/c1cc(-c2ccc3ccccc3c2O)n[nH]1 [′9768, (E)-2-(5-(Prop-1-en-1-yl)-1H-pyrazol-3-yl)naphthalen-1-ol]",6.951 ± 0.983,
"Cc1sccc1-c1cc(-c2ccc3ccccc3c2O)n[nH]1 [′9769, 2-(5-(2-Methylthiophen-3-yl)-1H-pyrazol-3-yl)naphthalen-1-ol]",4.922 ± 1.261,
Oc1c(-c2cc(-c3ccncc3)[nH]n2)ccc2ccccc12 [′9131],0.437 ± 0.26,
"C#Cc1cc(-c2ccc3ccccc3c2O)n[nH]1 [′9128, 2-(5-Ethynyl-1H-pyrazol-3-yl)naphthalen-1-ol]",,"Specifc Activity (nMol/min*mg), data collected at 10 uM: 0.442 ± 0.089^a nMol/min*mg"
"Cc1c(-c2ccccc2O)n[nH]c1-c1ccco1 [Compound 0394, 2-(5-(Furan-2-yl)-4-methyl-1H-pyrazol-3-yl)phenol]",0.0287 ± 0.0198,
"Cc1ccc(-c2cc(-c3ccc4ccccc4c3O)n[nH]2)s1 [′9625, 2-(5-(5-Methylthiophen-2-yl)-1H-pyrazol-3-yl)naphthalen-1-ol]",8.023 ± 1.065,EC50: 13.1 µM; EC50 (read-out: logEC50 (converted)): 13.1 µM
"Oc1c(-c2cc(-c3cc4ccccc4s3)[nH]n2)ccc2ccccc12 [′9130, 2-(5-(Benzo[b]thiophen-2-yl)-1H-pyrazol-3-yl)naphthalen-1-ol]",1.012 ± 0.064,
"Oc1ncccc1-c1cc(-c2ccco2)[nH]n1 [′7268, 3-(5-(Furan-2-yl)-1H-pyrazol-3-yl)pyridin-2-ol]",0.4793 ± 1.2179,
"Oc1cc(F)ccc1-c1cc(-c2ccco2)[nH]n1 [′4083, 5-Fluoro-2-(5-(furan-2-yl)-1H-pyrazol-3-yl)phenol]",28.76 ± 9.41,XylE activity in comparison to '8882 at 10 μM: activity similar to '8882; XylE activity in comparison to '8882 at 30 μM: activity similar to '8882; EC50: 20.9 µM; EC50 (read-out: logEC50 (converted)): 20.9 µM
